Measured values as given in patent US20260000076A1, “ANTIMICROBIAL COMBINATIONS” (Clariant International Ltd, priority 2022, published 2026).

Experiments:
Format in all cases: cell-based
Candida albicans = assay: Challenge test (European Pharmacopoeia 10th Edition, Chapter 5.1.3) in leave-on O/W-cream gel; parameters: key: An A-criteria is related to an excellent protection of a formulation; B-criteria is needed to show sufficient protection but additional risk eliminating measures related to packaging and raw material quality need to be applied; With an F-criteria for any of the organism tested the whole challenge test is failed and the preservation/protection of the formulation is not sufficient; details: for Challenge test result Candida albicans: Example 2B, CHA 0.1%, Velsan SC 0.9%, Velsan CGE 0.9%; for Challenge test result C.a.: Example 2A, Velsan Flex 1.35%, CHA 0.15%
Excerpt: (§1) Following examples show challenge test results that were done according to EUROPEAN PHARMACOPOEIA 10TH EDITION. Chapter 5.1.3. As representative microorganisms the following test germs were used: Pseudomonas aeruginosa (gram-negative organism, short “P.a.”), Staphylococcus aureus (gram-positive organism, short “S.a.”), Escherichia coli (gram negative organism, short “E.c.”), Candida albicans (yeast, short “C.a.”) and Aspergillus brasiliensis (mold, short “A.b.”).
(§2) The A criteria express the recommended efficacy to be achieved. In justified cases where the A criteria cannot be attained, for example for reasons of an increased risk of adverse reactions, the B criteria must be satisfied. An A-criteria is related to an excellent protection of a formulation, B-criteria is needed to show sufficient protection but additional risk eliminating measures related to packaging and raw material quality need to be applied. With an F-criteria for any of the organism tested the whole challenge test is failed and the preservation/protection of the formulation is not sufficient.
(§3) As a reference an unpreserved sample of the respective formulation was tested as well.
(§4) As a test system a difficult to preserve formulation was used: […]
(§5) As a Test System the Following Formulation was Used: […]

Escherichia coli = assay: as above; parameters: key: An A-criteria is related to an excellent protection of a formulation; B-criteria is needed to show sufficient protection but additional risk eliminating measures related to packaging and raw material quality need to be applied; With an F-criteria for any of the organism tested the whole challenge test is failed and the preservation/protection of the formulation is not sufficient; details: for Challenge test result Escherichia coli: Example 2B, CHA 0.1%, Velsan SC 0.9%, Velsan CGE 0.9%; for Challenge test result E.c.: Example 2A, Velsan Flex 1.35%, CHA 0.15%
Excerpt: as §1, §2, §3, §4, §5

Pseudomonas aeruginosa = assay: as above; parameters: key: An A-criteria is related to an excellent protection of a formulation; B-criteria is needed to show sufficient protection but additional risk eliminating measures related to packaging and raw material quality need to be applied; With an F-criteria for any of the organism tested the whole challenge test is failed and the preservation/protection of the formulation is not sufficient; details: for Challenge test result Pseudomonas aeruginosa: Example 2B, CHA 0.1%, Velsan SC 0.9%, Velsan CGE 0.9%; for Challenge test result P.a.: Example 2A, Velsan Flex 1.35%, CHA 0.15%
Excerpt: as §1, §2, §3, §4, §5

Aspergillus brasiliensis = assay: as above; parameters: key: An A-criteria is related to an excellent protection of a formulation; B-criteria is needed to show sufficient protection but additional risk eliminating measures related to packaging and raw material quality need to be applied; With an F-criteria for any of the organism tested the whole challenge test is failed and the preservation/protection of the formulation is not sufficient; details: for Challenge test result Aspergillus brasiliensis: Example 2B, CHA 0.1%, Velsan SC 0.9%, Velsan CGE 0.9%; for Challenge test result A.b.: Example 2A, Velsan Flex 1.35%, CHA 0.15%
Excerpt: as §1, §2, §3, §4, §5

Staphylococcus aureus = assay: as above; parameters: key: An A-criteria is related to an excellent protection of a formulation; B-criteria is needed to show sufficient protection but additional risk eliminating measures related to packaging and raw material quality need to be applied; With an F-criteria for any of the organism tested the whole challenge test is failed and the preservation/protection of the formulation is not sufficient; details: for Challenge test result Staphylococcus aureus: Example 2B, CHA 0.1%, Velsan SC 0.9%, Velsan CGE 0.9%; for Challenge test result S.a.: Example 2A, Velsan Flex 1.35%, CHA 0.15%
Excerpt: as §1, §2, §3, §4, §5

[1] = system: Pseudomonas aeruginosa, Staphylococcus aureus, Escherichia coli, Candida albicans and Aspergillus brasiliensis; assay: Challenge test, overall result over all test germs; parameters: key: An A-criteria is related to an excellent protection of a formulation; B-criteria is needed to show sufficient protection but additional risk eliminating measures related to packaging and raw material quality need to be applied; With an F-criteria for any of the organism tested the whole challenge test is failed and the preservation/protection of the formulation is not sufficient; details: for Challenge test Overall result: Example 2B, CHA 0.1%, Velsan SC 0.9%, Velsan CGE 0.9%
Excerpt: as §1, §2, §3, §4, §5

[2] = system: Serratia marcescens (B) BAM 491; assay: Minimum inhibitory concentration (MIC), agar dilution; details: Caso-Agar, pH 7 (+/−0.2)
Experimental: (§6) The antimicrobial properties of Velsan Flex, CHA and a combination of both against bacteria, yeast and mold were investigated: For testing the inhibition of bacteria, Velsan Flex, CHA or a combination of both was diluted in 1,2-propanediol and added in different concentrations to liquid Caso-Agar at 50° C. and was buffered to pH 7 (+/−0.2). For testing the inhibition of yeast and mold, Velsan Flex, CHA or a combination of both was diluted in 1,2-propanediol and added in different concentrations to liquid Sabouraud-4% Dextrose-Agar at 50° C. and was buffered to pH 5.6 (+/−0.2). Each of the solutions was poured into a petri-dish and inoculated with the same amount of bacteria, yeast or mold respectively. The minimum inhibitory concentration (MIC) is the lowest concentration of the respective composition that inhibits the growth of the respective microorganism where the next lowest dilution fails to inhibit the growth of said microorganism. The experiments were carried out in scientifically fair conditions so that a proper comparison could be made and conclusions drawn.

[3] = system: Klebsiella pneumoniae (B) DSM 786; assay: as above; details: DSM786, Caso-Agar, pH 7 (+/−0.2)
Experimental: as §6

[4] = system: Enterobacter aerogenes (B) NCIMB 10102; assay: as above; details: Klebsiella aerogenes, NCIMB10102; Caso-Agar, pH 7 (+/−0.2)
Experimental: as §6

[5] = system: Pseudomonas aeruginosa (B) DSM 1128; assay: as above; details: DSM1128, Caso-Agar, pH 7 (+/−0.2)
Experimental: as §6

[6] = system: Burkholderia cepacia (B) DSM 7288; assay: as above; details: DSM7288, Caso-Agar, pH 7 (+/−0.2)
Experimental: as §6

[7] = system: Aspergillus brasiliensis (M) DSM 1988; assay: as above; details: DSM1988, Sabouraud-4% Dextrose-Agar, pH 5.6 (+/−0.2)
Experimental: as §6

[8] = system: Candida parapsilosis (Y) DSM 5784; assay: as above; details: Lodderomyces parapsilosis, DSM5784; Sabouraud-4% Dextrose-Agar, pH 5.6 (+/−0.2)
Experimental: as §6

[9] = system: Aspergillus terreus (M) IMI 45543; assay: as above; details: Sabouraud-4% Dextrose-Agar, pH 5.6 (+/−0.2)
Experimental: as §6

[10] = system: Staphylococcus aureus (B) DSM 799; assay: as above; details: DSM799, Caso-Agar, pH 7 (+/−0.2)
Experimental: as §6

[11] = system: Candida albicans (Y) DSM 1386; assay: as above; details: DSM1386, Sabouraud-4% Dextrose-Agar, pH 5.6 (+/−0.2)
Experimental: as §6

[12] = system: Escherichia coli (B) DSM 682; assay: as above; details: DSM682, Caso-Agar, pH 7 (+/−0.2)
Experimental: as §6

Row | Compound | Challenge test result Candida albicans (Candida albicans; pH 5) | Challenge test result Candida albicans (Candida albicans; pH 7) | Challenge test result Escherichia coli (Escherichia coli; pH 5) | Challenge test result Escherichia coli (Escherichia coli; pH 7) | Challenge test result Pseudomonas aeruginosa (Pseudomonas aeruginosa; pH 5) | Challenge test result Pseudomonas aeruginosa (Pseudomonas aeruginosa; pH 7) | Challenge test result Aspergillus brasiliensis (Aspergillus brasiliensis; pH 5) | Challenge test result Aspergillus brasiliensis (Aspergillus brasiliensis; pH 7) | Challenge test result Staphylococcus aureus (Staphylococcus aureus; pH 5) | Challenge test result Staphylococcus aureus (Staphylococcus aureus; pH 7) | Challenge test Overall result ([1]; pH 5) | Challenge test Overall result ([1]; pH 7) | also measured
1 | Sorbitan caprylate [Velsan SC] | B | B | A | B | F | F | F | F | A | A | F | F | 
2 | CCCCCCCC(=O)NO [CHA, Caprylhydroxamic acid] | A | A | B | B | A | A | B | A | A | F | B | F | Challenge test result C.a. (Candida albicans; pH 5): A; Challenge test result C.a. (Candida albicans; pH 7): A; Challenge test result E.c. (Escherichia coli; pH 5): B; Challenge test result E.c. (Escherichia coli; pH 7): B; Challenge test result P.a. (Pseudomonas aeruginosa; pH 5): A; Challenge test result P.a. (Pseudomonas aeruginosa; pH 7): A; Challenge test result A.b. (Aspergillus brasiliensis; pH 5): A; Challenge test result A.b. (Aspergillus brasiliensis; pH 7): A; Challenge test result S.a. (Staphylococcus aureus; pH 5): A; Challenge test result S.a. (Staphylococcus aureus; pH 7): B; Challenge test, criteria obtained over all test organisms ([1]; Example 2A, pH 5, Velsan Flex 1.35%, CHA 0.15%): B
3 | CCCCCCCC(=O)NO [10% CHA solution, Caprylhydroxamic acid] |  |  |  |  |  |  |  |  |  |  |  |  | MIC [2]: 4000 µg/mL; MIC [3]: 3000 µg/mL; MIC [4]: 6000 µg/mL; MIC [5]: 8000 µg/mL; MIC [6]: 3000 µg/mL; MIC [7]: 3000 µg/mL; MIC [8]: 2000 µg/mL; MIC [9]: 2000 µg/mL; MIC [10]: 8000 µg/mL; MIC [11]: 2000 µg/mL; MIC [12]: 5000 µg/mL
